Measured values reported in US20240216410A1, “METHODS AND COMPOSITIONS FOR TREATING CANCER THERAPY-INDUCED NEUTROPENIC FEVER AND/OR GVHD” (BOARD OF REGENTS, THE UNIVERSITY OF TEXAS SYSTEM, priority 2021, published 2024).
Read-outs that look alike come from different tables or passages of the source.

What was measured:
[1] = system: A. muciniphila strain (MDA-JAX AM001); test: Growth of A. muciniphila in BYEM10+ mucin medium (OD600 nm up to 48 hrs); format: cell-based, Akkermansia muciniphila
Description: SCFAs were added in 10 and 20 mM final concentration to bacterial culture. Growth of the bacteria at 37° C. in BYEM10+ mucin medium was read at OD600 nm continuously up to 48 hrs. Control Akkermansia culture was grown in absence of compounds.
Using a high-throughput screening strategy analyzing ˜1800 compounds, various other natural compounds in addition to SCFAs were identified for their potential to delay and/or suppress growth of MDA-JAX AM001. […] Growth of the bacteria at 37° C. in BYEM10+ mucin medium was read at OD600 nm continuously up to 48 hrs. Control Akkermansia culture was grown in absence of compounds.
Several active ruminal metabolites were also tested for their ability to delay and/or suppress growth of MDA-JAX AM001. Compounds were selected based on initial testing of Akkermansia growth in medium containing 1× to 3× concentrated ruminal fluid, followed by analysis of metabolite content by MALDI-TOF mass-spectrometry. Ruminal metabolite compounds tested included Malic acid (2 mM and 5.6 mM), 3-Indole acetic acid (5.6 mM and 8.6 mM), Hydrocinnamic acid (2.66 mM and 3.99 mM), Methylmalonic acid (8.4 mM and 10.6 mM), Glucoranic acid (16.8 mM), Galacturonic acid (14 mM), and Bis-hydroxy methyl propionic acid (22 mM). These ruminal metabolite compounds have also been found in human stool, as analyzed by MALDI-TOF mass spectrometry. […] Growth of the bacteria at 37° C. in BYEM10+ mucin medium was read at OD600 nm continuously up to 48 hrs. Control Akkermansia culture was grown in absence of compounds.

[2] = system: Akkermansia
[3] = system: A. muciniphila (MDA-JAX AM001); settings: for mucin glycan utilization by A. muciniphila: physiological concentrations, varying pH, 48 hours of culture
Description: The impact of DR-induced metabolic changes in the colonic lumen on A. muciniphila behavior was also studied using an in vitro mucin glycan consumption assay. A novel A. muciniphila (MDA-JAX AM001) strain was isolated from the feces of C57BL6 mice and introduced to liquid media supplemented with PGM, and the effects of varying pH either alone or combined with the presence of physiological concentrations of acetate, propionate, and butyrate were evaluated.

[4] = system: Akkermansia; test: Total body radiotherapy (9 Gy RT) mice treated with azithromycin or propionate; format: in vivo; settings: for colonic mucus layer thickness: 9 Gy total body RT; for colonic tissue levels of IL-1b, CCL2, CCL7, IL-22, CXCL1 and CXCL10 / ocular surface temperatures (hypothermia) / outgrowth of Akkermansia: day 6 after RT; for outgrowth of Akkermansia: 16S rRNA gene sequencing
Description: C57BL/6 mice were exposed to a single myeloablative dose of total body radiotherapy (9 Gy RT), and stool samples were evaluated 6 days later by 16S rRNA gene sequencing. […] Colonic tissue samples were cut cross-sectionally and mucus layer thickness was averaged across 8 equally-spaced circumferential sites (FIG. 7) to evaluate whether the dense colonic mucus layer, which normally separates bacteria-rich luminal contents from the colonic epithelium, was affected by irradiation in mice.
Additionally, ocular surface temperatures were non-invasively measured in mice using a published method (16) because in contrast to humans, mice are develop hypothermia in response to exposure to inflammatory ligands such as LPS (17) and in models of sepsis (18).
The degree of inflammation in colonic tissue was directed measured by quantifying levels of a panel of cytokines (FIG. 5C).

[5] = system: Akkermansia; test: Dietary restriction in mice with narrow-spectrum antibiotics in the drinking water; format: in vivo; settings: antibiotic in drinking water from 5 days prior to dietary restriction
From the text: Diet is a major determinant of intestinal microbiome composition, and the indirect impact of RT on microbiome composition due to a reduction in intake of food in mice was investigated. Mice were individually housed in metabolic cages following RT to quantify effects of RT on food and water intake. Within 2 days following RT, mice had reduced their oral intake to approximately 2 grams a day, or a 50% reduction (FIG. 3A). To evaluate whether dietary restriction (DR) could impact intestinal microbiome composition and the colonic mucus layer, normal, un-irradiated mice were limited 2 grams of chow per mouse per day for 7 days.
Because commercially-available mice lacking Akkermansia are not easy to find (12), narrow-spectrum antibiotics were used to evaluate the specific contribution of Akkermansia to mucus thinning during DR.

[6] = human, in vivo
Description: In this study, data from 295 patients with acute myeloid leukemia (AML) or myelodysplastic syndrome (MDS) who underwent allo-HSCT with tacrolimus and methotrexate as GVHD prophylaxis following conditioning therapy with fludarabine and 5 busulfan from 2011 to 2016 were retrospectively examined. The incidence of acute intestinal GVHD until day 100 after transplant was evaluated and compared were patients who received neither cefepime nor meropenem, those who received cefepime alone, those who received meropenem alone, and those who received both cefepime and meropenem during the period from days −10 to 30 relative to allo-HSCT infusion.
Retrospective study design. 295 patients with acute myeloid leukemia (AML) or myelodysplastic syndrome (MDS) underwent allogeneic hematopoietic stem cell transplantation (allo-HSCT) with fludarabine plus busulfan as conditioning therapy and tacrolimus and methotrexate as GVHD prophylaxis from 2011 and 2016 and were analyzed retrospectively. Patients were classified by antibiotic exposures, including those who received neither cefepime nor meropenem, those who received cefepime alone, those who received meropenem alone and those who received both cefepime and meropenem from day −10 to day 30 after allo-HSCT. Acute GVHD was diagnosed by clinical and/or pathological findings, and graded according to standard criteria (56).

[7] = Melphalan therapy in mice: intestinal microbiome and colonic mucus layer; format: in vivo; settings: 6 days following melphalan 20 mg/kg, C57BL/6 mice
From the text: Myeloablative RT, previously a foundational pillar that made HCT possible, has been progressively replaced by chemotherapy, particularly alkylating agents (11). […] An expansion of Bacteroides was also seen, though this was not statistically significant after correction for multiple comparisons, and was accompanied by a loss of Muribaculaceae, similar to that following RT.

[8] = Malic acid 2 and 5.6 mM, 3-Indole acetic acid 5.6 and 8.6 mM, Hydrocinnamic acid 2.66 and 3.99 mM, Methylmalonic acid 8.4 and 10.6 mM, Glucoranic acid 16.8 mM, Galacturonic acid 14 mM, Bis-hydroxy methyl propionic acid 22 mM
[9] = Brucine 2.5 and 5 mM, Methyl-β-D-galactopyranoside 14 mM, Resacetophenone 3.3 and 5 mM, Serotonin 4.7 and 7.1 mM
[10] = acidified drinking water (pH3), one week dietary restriction
[11] = 10 mM and 20 mM, vs mucin-only control, 37° C.
[12] = drinking water at neutral pH, dietary restriction

## O=C(O)Cc1c[nH]c2ccccc12 [3-Indole acetic acid]
[1]; [8]
  growth of MDA-JAX AM001: delay and inhibit MDA-JAX AM001 growth

## CC(CO)(CO)C(=O)O [Bis-hydroxy methyl propionic acid]
[1]; [8]
  growth of MDA-JAX AM001: delay and inhibit MDA-JAX AM001 growth

## COc1cc2c(cc1OC)[C@@]13CCN4CC5=CCO[C@H]6CC(=O)N2[C@H]1[C@H]6[C@H]5C[C@H]43 [Brucine]
[1]; [9]
  growth of MDA-JAX AM001: delay and suppress the growth of MDA-JAX AM001

## O=C[C@H](O)[C@@H](O)[C@@H](O)[C@H](O)C(=O)O [Galacturonic acid]
[1]; [8]
  growth of MDA-JAX AM001: delay and inhibit MDA-JAX AM001 growth

## O=C(O)CCc1ccccc1 [Hydrocinnamic acid]
[1]; [8]
  growth of MDA-JAX AM001: delay and inhibit MDA-JAX AM001 growth

## O=C(O)CC(O)C(=O)O (stereo not drawn) [Malic acid]
[1]; [8]
  growth of MDA-JAX AM001: delay and inhibit MDA-JAX AM001 growth

## CO[C@@H]1O[C@H](CO)[C@H](O)[C@H](O)[C@H]1O [Methyl-β-D-galactopyranoside]
[1]; [9]
  growth of MDA-JAX AM001: delay and suppress the growth of MDA-JAX AM001

## CC(C(=O)O)C(=O)O [Methylmalonic acid]
[1]; [8]
  growth of MDA-JAX AM001: delay and inhibit MDA-JAX AM001 growth

## CC(=O)c1ccc(O)cc1O [Resacetophenone]
[1]; [9]
  growth of MDA-JAX AM001: delay and suppress the growth of MDA-JAX AM001

## NCCc1c[nH]c2ccc(O)cc12 [Serotonin]
[1]; [9]
  growth of MDA-JAX AM001: delay and suppress the growth of MDA-JAX AM001

## CC(=O)[O-].[Na+] [acetate, sodium acetate]
[2]; [10]
  expansion of Akkermansia: no such preventative effect
  fecal / colonic luminal pH: lowering the pH in the colonic lumen
  thinning of the colonic mucus layer: no such preventative effect
[3]
  mucin glycan utilization by A. muciniphila: negligible effects on A. muciniphila behavior

## CC[C@H]1OC(=O)[C@H](C)[C@@H](O[C@H]2C[C@@](C)(OC)[C@@H](O)[C@H](C)O2)[C@H](C)[C@@H](O[C@@H]2O[C@H](C)C[C@H](N(C)C)[C@H]2O)[C@](C)(O)C[C@@H](C)CN(C)[C@H](C)[C@@H](O)[C@]1(C)O [azithromycin]
[4]
  colonic mucus layer thickness: effective in preserving colonic mucus layer thickness
  colonic tissue levels of IL-1b, CCL2, CCL7, IL-22, CXCL1 and CXCL10: reduced
  ocular surface temperatures (hypothermia): less depressed at day 6
  outgrowth of Akkermansia: very effective at preventing outgrowth of Akkermansia
[5]
  bacterial populations depleted: depleted Akkermansia as well as some gram positive populations
  colonic mucus layer thinning during dietary restriction: prevented thinning of the colonic mucus layer

## CCCC(=O)[O-].[Na+] [butyrate, sodium butyrate]
[3]
  mucin glycan utilization by A. muciniphila: negligible effects on A. muciniphila behavior

## CO/N=C(\C(=O)N[C@@H]1C(=O)N2C(C(=O)[O-])=C(C[N+]3(C)CCCC3)CS[C@H]12)c1csc(N)n1 [cefepime]
[6]
  Acute GVHD Grade 0, number of patients: 57
  Acute GVHD Grade 0, percentage of patients: (46%)
  Acute GVHD Grade I, number of patients: 26
  Acute GVHD Grade I, percentage of patients: (21%)
  Acute GVHD Grade II, number of patients: 34
  Acute GVHD Grade II, percentage of patients: (27%)
[6]; iv
  Acute GVHD Grade III-IV, number of patients: 7
  Acute GVHD Grade III-IV, percentage of patients: (6%)

## CC(C)CC(=O)O [isovalerate]
[1]; [11]
  growth of MDA-JAX AM001: suppress and/or delay MDA-JAX AM001 growth

## N[C@@H](Cc1ccc(N(CCCl)CCCl)cc1)C(=O)O [melphalan]
[7]
  changes in the intestinal microbiome: increase in the abundance of Akkermansia
  colonic mucus layer thickness: significantly thinner

## CCC(=O)[O-].[Na+] [propionate, sodium propionate]
[4]
  colonic mucus layer thickness: effective in preserving colonic mucus layer thickness
  colonic tissue levels of IL-1b, CCL2, CCL7, IL-22, CXCL1 and CXCL10: prevented elevation of all of these cytokines, with the exception of CXCL1
  ocular surface temperatures (hypothermia): less depressed at day 6
  outgrowth of Akkermansia: not effective
[2]; [10]
  expansion of Akkermansia: mitigated expansion of Akkermansia
  fecal / colonic luminal pH: reduced fecal pH
  thinning of the colonic mucus layer: prevented thinning of the mucus layer
[2]; [12]
  expansion of Akkermansia: trended towards preventing Akkermansia expansion
  thinning of the colonic mucus layer: sufficient to prevent mucus thinning
[3]; higher levels, OD 600
  growth of A. muciniphila: delays in growth
[3]
  mucin glycan utilization by A. muciniphila: inhibitory effects on mucin glycan utilization

## [H]/N=C(/N)N[C@H]1[C@H](O)[C@@H](O)[C@H](O[C@@H]2O[C@@H](C)[C@](O)(C=O)[C@H]2O[C@@H]2O[C@@H](CO)[C@H](O)[C@@H](O)[C@@H]2NC)[C@@H](N/C(N)=N\[H])[C@@H]1O [streptomycin]
[5]
  bacterial populations depleted: depleted certain gram-positive bacteria
  colonic mucus layer thinning during dietary restriction: Neither streptomycin nor vancomycin had a significant effect on mucus barrier loss

## CCCCC(=O)O [valerate]
[1]; [11]
  growth of MDA-JAX AM001: suppress and/or delay MDA-JAX AM001 growth

## CN[C@H](CC(C)C)C(=O)N[C@H]1C(=O)N[C@@H](CC(N)=O)C(=O)N[C@H]2C(=O)N[C@H]3C(=O)N[C@H](C(=O)N[C@H](C(=O)O)c4cc(O)cc(O)c4-c4cc3ccc4O)[C@H](O)c3ccc(c(Cl)c3)Oc3cc2cc(c3O[C@@H]2O[C@H](CO)[C@@H](O)[C@H](O)[C@H]2O[C@H]2C[C@](C)(N)[C@H](O)[C@H](C)O2)Oc2ccc(cc2Cl)[C@H]1O [vancomycin]
[5]
  bacterial populations depleted: depleted both gram-positive bacteria and some Bacteroidetes
  colonic mucus layer thinning during dietary restriction: Neither streptomycin nor vancomycin had a significant effect on mucus barrier loss
